# Test results reported in patent publication US9617212B2, “Isoindolin-1-ones as macrophage migration inhibitory factor (MIF) inhibitors” (Controlled Chemicals, Inc., priority 2013, dated 2017).
# Target: T1, Human MIF (MIF tautomerase) (Homo sapiens, UniProt P14174)
# T1 construct: purchased ProSpec
# T1 sequence (P14174 2-115 limits assumed): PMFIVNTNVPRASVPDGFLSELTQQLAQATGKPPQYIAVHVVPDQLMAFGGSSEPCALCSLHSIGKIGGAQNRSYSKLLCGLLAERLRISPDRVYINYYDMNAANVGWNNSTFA
# Assay: MIF Tautomerase Inhibitory Assay with L-Dopachrome Methyl Ester
# Assay type: biochemical
# Conditions: relative potency class, MIF tautomerase inhibition; L-dopachrome methyl ester substrate, pH 7.34, no pre-incubation; read-out: IC50
# Procedure: MIF Tautomerase Inhibitory Assay with L-Dopachrome Methyl Ester
# Assay Method (pH 7.34, 0.017-0.033% DMSO, 0.034% EtOH): A fresh stock solution of L-dopachrome methyl ester in MeOH was prepared at 55-65 mM through oxidation of L-3,4-dihydroxyphenylalanine methyl ester hydrochloride with sodium periodate according to the procedure described in WO9729635A1. MeOH was removed from 0.5 mL of the L-dopachrome methyl ester/MeOH solution (55-65 mM) under a stream of argon and the residue taken up in appropriate amount of water to prepare a substrate solution (7-10 mM). Active Human MIF (from ProSpec) ([…]) was dissolved in 675 μL 0.1% bovine serum albumin (BSA) in water, and the resultant MIF solution (1 volume) mixed with 55 volumes of Na2HPO4 buffer (50 mM, pH 7.34) to form a 265 ng/mL MIF working solution. MIF working solution (280 μL) or a no-MIF working solution (prepared by mixing 0.1% BSA (1 volume) with the aforementioned Na2HPO4 buffer (55 volumes)) was transferred to wells in a column of 8 wells on a 96-well plate in a Plate Reader (SPECTRAmax Plus 384, Molecular Devices), and 5 μL of H2O/DMSO (99/1) containing no inhibitor or an inhibitor (whose concentration was verified by HPLC). Without pre-mixing or pre-incubation, 10 μL freshly prepared L-dopachrome methyl ester/H2O solution (7-10 mM) was added to each well with a multi-pipet. The assay samples were mixed immediately by sucking up and expelling the contents of the wells three times with a multi-pipet. The absorbance (A1) at 475 nm was then recorded for each sample every 2 s for 3 min. After 5-6 min, the samples were monitored again for 3 min with a reading every two seconds at 475 nm (A2). It can be shown that when [substrate]<<Km, plots of Ln(A1−A2) versus time are linear with slopes m (Eq 1). IC50 values were estimated from Eq 2-5, the inhibitor concentration [I] in the assay mixture and values of m in the presence (mi), absence (mo) of the inhibitor, the value of m observed for the non-MIF blank (mn), the MIF concentration (e), and the specificity constant for the MIF catalyzed reaction (kcat/Km). Ln(A1−A2)=−mt (Eq 1) F=(mi−mn)/(mo−mn) (Eq 2) Wherein mo−mn=ekcat/Km (Eq 3) and mi−mn=(ekcat/Km)[…] (Eq 4) IC50=[I]F/(1−F) (Eq 5)
# The compounds listed in Table 1, provided herein, were prepared via procedures identical or similar to those described in the Examples 1-85. The listed compounds were >95% pure by HPLC. Each listed compound yielded a mass spectrum consistent with its structure. Concentrations of MIF tautomerase inhibitors used in the assay were verified by HPLC and the extinction coefficients of the inhibitors. The designated relative potency of MIF tautomerase inhibitors is based on the IC50 as determined by the method described in Biochemical Assay as follows: A, IC50<1 μM; B, 1 μM≦IC50<5 μM; C, 5 μM≦IC50<10 μM; D, 10 μM≦IC50<50 μM; E, 50 μM≦IC50<200 μM.
row,IC50 [nM],SMILES
1,< 1000,"COC(=O)[C@@H](CO)NC(C)[C@H]1CC[C@H](CN2Cc3ccc(O)c(F)c3C2=O)CC1 (single isomer, unassigned)"
2,< 1000,"CC(N[C@H](CO)C(=O)O)[C@H]1CC[C@H](CN2Cc3ccc(O)c(F)c3C2=O)CC1 (single isomer, unassigned)"
3,< 1000,"COC(=O)[C@H](NC(C)[C@H]1CC[C@H](CN2Cc3ccc(O)c(F)c3C2=O)CC1)C(C)C (single isomer, unassigned)"
4,< 1000,"CC(C)[C@@H](NC(C)[C@H]1CC[C@H](CN2Cc3ccc(O)c(F)c3C2=O)CC1)C(=O)O (single isomer, unassigned)"
5,< 1000,"COC(=O)[C@H](C)NC(C)[C@H]1CC[C@H](CN2Cc3ccc(O)c(F)c3C2=O)CC1 (single isomer, unassigned)"
6,< 1000,"CC(N[C@H](C)C(=O)O)[C@H]1CC[C@H](CN2Cc3ccc(O)c(F)c3C2=O)CC1 (single isomer, unassigned)"
7,< 1000,"CC(N[C@@H](C)C(=O)O)[C@H]1CC[C@H](CN2Cc3ccc(O)c(F)c3C2=O)CC1 (single isomer, unassigned)"
8,< 1000,CC(C)C[C@@H](NC(C)C1CCC(CN2Cc3ccc(O)c(F)c3C2=O)CC1)C(=O)O (stereo partly shown) [drawing 104]
9,< 1000,CC(C)C[C@@H](NC(C)C1CCC(CN2Cc3ccc(O)c(F)c3C2=O)CC1)C(=O)O (stereo partly shown) [drawing 107]
10,< 1000,COC(=O)[C@@H](C)NC(C)C1CCC(CN2Cc3ccc(O)c(F)c3C2=O)CC1 (stereo partly shown) [drawing 112]
11,< 1000,COC(=O)[C@@H](C)NC(C)C1CCC(CN2Cc3ccc(O)c(F)c3C2=O)CC1 (stereo partly shown) [drawing 113]

# Second part, the molecule before the results:
row,SMILES,IC50 [nM]
1,CC(Oc1cccc(OCCN(C)C)c1)[C@H]1CC[C@H](CN2Cc3ccc(O)c(F)c3C2=O)CC1 (stereo partly shown),< 1000
2,O=C1c2cc(O)ccc2CN1C[C@H]1CC[C@H](C(O)CCC2CCCCC2)CC1 (stereo partly shown),< 1000
3,CC(Oc1cccc(F)c1)[C@H]1CC[C@H](CN2Cc3cc(F)c(O)cc3C2=O)CC1 (mixture of isomers) [drawing 62],< 1000
4,CC(Oc1cccc(F)c1)[C@H]1CC[C@H](CN2Cc3cc(F)c(O)cc3C2=O)CC1 (mixture of isomers) [drawing 63],< 1000
5,"C[C@@H](OC(=O)CCC(=O)O)[C@H]1CC[C@H](CN2Cc3ccc(O)c(F)c3C2=O)CC1 (single isomer, unassigned)",< 1000
6,CNC(=O)[C@H](Cc1ccccc1)NC(C)C1CCC(CN2Cc3ccc(O)c(F)c3C2=O)CC1 (stereo partly shown) [drawing 99],< 1000
7,CNC(=O)[C@H](Cc1ccccc1)NC(C)C1CCC(CN2Cc3ccc(O)c(F)c3C2=O)CC1 (stereo partly shown) [drawing 100],< 1000
8,CC(C)[C@@H](CO)NC(C)[C@H]1CC[C@H](CN2Cc3ccc(O)cc3C2=O)CC1 (stereo partly shown) [drawing 110],< 1000
9,O=C(OC1CCCC1)C1CCC(CCN2Cc3ccc(O)cc3C2=O)CC1 (stereo not shown) [drawing 138],1000 to 5000
10,O=C(OC1CCCC1)C1CCC(CCN2Cc3ccc(O)cc3C2=O)CC1 (stereo not shown) [drawing 139],1000 to 5000
11,CC(C)[C@@H](CO)NC(C)[C@H]1CC[C@H](CN2Cc3ccc(O)cc3C2=O)CC1 (stereo partly shown) [drawing 150],1000 to 5000
